In PubChem BioAssay AID2060511 (Molecular Pharmacology Branch, DTP, NCI, 2025):

System: 422866-222-R5-J1-PDC spheroids with HUVEC/MSC, viability
Assay: Anticancer human tumor 422866-222-R5-J1-PDC patient-derived pancreatic adenocarcinoma cell line growth inhibition [GQUAD]
Conditions: for IC50: curve of first compound; for viability, T/C: stronger effect = lower value
Outline: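 Viability of tumor cells grown as complex spheroids with endothelial and stromal cells, exposed to drug combinations. Top concentration at or near clinical Cmax (else 10 microM), diluted in half-log increments.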

[1] = second compound 0.0316 µM, first compound 0.0316 µM
[2] = second compound 0.0316 µM, first compound 0.1 µM
[3] = second compound 0.0316 µM, first compound 0.316 µM
[4] = second compound 0.0316 µM, first compound 1 µM
[5] = second compound 0.0316 µM, first compound 3.16 µM
[6] = second compound 0.0316 µM, first compound 10 µM
[7] = second compound 0.1 µM, first compound 0.0316 µM
[8] = second compound 0.1 µM, first compound 0.1 µM
[9] = second compound 0.1 µM, first compound 0.316 µM
[10] = second compound 0.1 µM, first compound 1 µM
[11] = second compound 0.1 µM, first compound 3.16 µM
[12] = second compound 0.1 µM, first compound 10 µM
[13] = second compound 0.316 µM, first compound 0.0316 µM
[14] = second compound 0.316 µM, first compound 0.1 µM
[15] = second compound 0.316 µM, first compound 0.316 µM
[16] = second compound 0.316 µM, first compound 1 µM
[17] = second compound 0.316 µM, first compound 3.16 µM
[18] = second compound 0.316 µM, first compound 10 µM
[19] = second compound 1 µM, first compound 0.0316 µM
[20] = second compound 1 µM, first compound 0.1 µM
[21] = second compound 1 µM, first compound 0.316 µM
[22] = second compound 1 µM, first compound 1 µM
[23] = second compound 1 µM, first compound 3.16 µM
[24] = second compound 1 µM, first compound 10 µM
[25] = second compound 3.16 µM, first compound 0.0316 µM
[26] = second compound 3.16 µM, first compound 0.1 µM
[27] = second compound 3.16 µM, first compound 0.316 µM
[28] = second compound 3.16 µM, first compound 1 µM
[29] = second compound 3.16 µM, first compound 3.16 µM
[30] = second compound 3.16 µM, first compound 10 µM
[31] = second compound 10 µM, first compound 0.0316 µM
[32] = second compound 10 µM, first compound 0.1 µM
[33] = second compound 10 µM, first compound 0.316 µM
[34] = second compound 10 µM, first compound 1 µM
[35] = second compound 10 µM, first compound 3.16 µM
[36] = second compound 10 µM, first compound 10 µM
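Note: spheroids exposed to compounds for seven days before reading.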
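Throughout, for viability, T/C: percent viability relative to DMSO vehicle control taken as 100%.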

Compound: C=CCn1c(=O)c2cnc(Nc3ccc(N4CCN(C)CC4)cc3)nc2n1-c1cccc(C(C)(C)O)n1 + Cc1cnc(CNC(=O)c2c(=O)c3ccc(N4CCCN(C)CC4)nc3n3c2sc2ccccc23)cn1
- IC50 (second compound 0.0316 µM): 0.31 µM
- IC50 (second compound 0.1 µM): 0.545 µM
- IC50 (second compound 0.316 µM): 1.32 µM
- IC50 (second compound 1 µM): 2.27 µM
- IC50 (second compound 3.16 µM): 3.24 µM
- IC50 (second compound 10 µM): 2.78 µM
- viability, T/C [1]: 86.8%
- viability, T/C [2]: 70%
- viability, T/C [3]: 51.6%
- viability, T/C [4]: 35.2%
- viability, T/C [5]: 29.1%
- viability, T/C [6]: 34.2%
- viability, T/C [7]: 89.2%
- viability, T/C [8]: 71.9%
- viability, T/C [9]: 54.1%
- viability, T/C [10]: 45.5%
- viability, T/C [11]: 38.5%
- viability, T/C [12]: 36.7%
- viability, T/C [13]: 85%
- viability, T/C [14]: 80.2%
- viability, T/C [15]: 63.5%
- viability, T/C [16]: 52.4%
- viability, T/C [17]: 43.6%
- viability, T/C [18]: 34.2%
- viability, T/C [19]: 74.7%
- viability, T/C [20]: 74.2%
- viability, T/C [21]: 64.8%
- viability, T/C [22]: 57.3%
- viability, T/C [23]: 46.2%
- viability, T/C [24]: 44.8%
- viability, T/C [25]: 82.8%
- viability, T/C [26]: 64.5%
- viability, T/C [27]: 65.5%
- viability, T/C [28]: 62.4%
- viability, T/C [29]: 51.4%
- viability, T/C [30]: 39.6%
- viability, T/C [31]: 72.9%
- viability, T/C [32]: 73.4%
- viability, T/C [33]: 70.8%
- viability, T/C [34]: 60.8%
- viability, T/C [35]: 49%
- viability, T/C [36]: 42.3%

Compound: CC1COCCN1c1cc(C2(O)CC3CCC(C2)O3)c2cnn(-c3ccn[nH]3)c2n1 (stereo not drawn) + CN(C)c1ccc(Nc2c3ccc(NC(=O)CCN4CCCC4)cc3nc3cc(NC(=O)CCN4CCCC4)ccc23)cc1
- IC50 (second compound 0.0316 µM): > 10 µM
- IC50 (second compound 0.1 µM): 0.0316 µM
- IC50 (second compound 0.316 µM): > 10 µM
- IC50 (second compound 1 µM): 0.0316 µM
- IC50 (second compound 3.16 µM): > 10 µM
- IC50 (second compound 10 µM): 0.0316 µM
- viability, T/C [1]: 65.6%
- viability, T/C [2]: 52.2%
- viability, T/C [3]: 55.3%
- viability, T/C [4]: 90%
- viability, T/C [5]: 87.1%
- viability, T/C [6]: 92.5%
- viability, T/C [7]: 79.8%
- viability, T/C [8]: 49.7%
- viability, T/C [9]: 45.7%
- viability, T/C [10]: 108%
- viability, T/C [11]: 91.4%
- viability, T/C [12]: 90.4%
- viability, T/C [13]: 78.8%
- viability, T/C [14]: 45.1%
- viability, T/C [15]: 64.5%
- viability, T/C [16]: 90%
- viability, T/C [17]: 94.1%
- viability, T/C [18]: 88.4%
- viability, T/C [19]: 61.9%
- viability, T/C [20]: 49.6%
- viability, T/C [21]: 39.4%
- viability, T/C [22]: 88%
- viability, T/C [23]: 89.1%
- viability, T/C [24]: 83.8%
- viability, T/C [25]: 57.4%
- viability, T/C [26]: 51.8%
- viability, T/C [27]: 50.2%
- viability, T/C [28]: 87.3%
- viability, T/C [29]: 95.5%
- viability, T/C [30]: 83.9%
- viability, T/C [31]: 59.8%
- viability, T/C [32]: 47.3%
- viability, T/C [33]: 43.1%
- viability, T/C [34]: 93.1%
- viability, T/C [35]: 88.3%
- viability, T/C [36]: 88.5%

Compound: CC1COCCN1c1cc(C2(S(C)(=N)=O)CC2)nc(-c2ccnc3[nH]ccc23)n1 (stereo not drawn) + Cc1cnc(CNC(=O)c2c(=O)c3ccc(N4CCCN(C)CC4)nc3n3c2sc2ccccc23)cn1
- IC50 (second compound 0.0316 µM): > 10 µM
- IC50 (second compound 0.1 µM): > 10 µM
- IC50 (second compound 0.316 µM): > 10 µM
- IC50 (second compound 1 µM): > 10 µM
- IC50 (second compound 3.16 µM): > 10 µM
- IC50 (second compound 10 µM): > 10 µM
- viability, T/C [1]: 102%
- viability, T/C [2]: 103%
- viability, T/C [3]: 95.1%
- viability, T/C [4]: 80.8%
- viability, T/C [5]: 71%
- viability, T/C [6]: 50.7%
- viability, T/C [7]: 104%
- viability, T/C [8]: 102%
- viability, T/C [9]: 96.2%
- viability, T/C [10]: 80%
- viability, T/C [11]: 67.7%
- viability, T/C [12]: 53.6%
- viability, T/C [13]: 91.7%
- viability, T/C [14]: 98.5%
- viability, T/C [15]: 99.5%
- viability, T/C [16]: 96.2%
- viability, T/C [17]: 77.4%
- viability, T/C [18]: 61.2%
- viability, T/C [19]: 83.2%
- viability, T/C [20]: 92.8%
- viability, T/C [21]: 103%
- viability, T/C [22]: 86.3%
- viability, T/C [23]: 72.8%
- viability, T/C [24]: 77.6%
- viability, T/C [25]: 93.9%
- viability, T/C [26]: 96.6%
- viability, T/C [27]: 90.2%
- viability, T/C [28]: 94.7%
- viability, T/C [29]: 78.1%
- viability, T/C [30]: 71.6%
- viability, T/C [31]: 89.7%
- viability, T/C [32]: 92.3%
- viability, T/C [33]: 93.1%
- viability, T/C [34]: 87.7%
- viability, T/C [35]: 82%
- viability, T/C [36]: 64.7%

Compound: COc1ccc([C@@H](O)c2cc(-c3ncnc4cc(N5CCOCC5)ccc34)c(F)cc2Cl)nn1 + CN(C)c1ccc(Nc2c3ccc(NC(=O)CCN4CCCC4)cc3nc3cc(NC(=O)CCN4CCCC4)ccc23)cc1
- IC50 (second compound 0.0316 µM): 2.85 µM
- IC50 (second compound 0.1 µM): 2.24 µM
- IC50 (second compound 0.316 µM): 2.36 µM
- IC50 (second compound 1 µM): 2.03 µM
- IC50 (second compound 3.16 µM): 1.8 µM
- IC50 (second compound 10 µM): 0.876 µM
- viability, T/C [1]: 97.8%
- viability, T/C [2]: 96.5%
- viability, T/C [3]: 73.9%
- viability, T/C [4]: 76.7%
- viability, T/C [5]: 42.2%
- viability, T/C [6]: 34.5%
- viability, T/C [7]: 98.8%
- viability, T/C [8]: 86.9%
- viability, T/C [9]: 79.1%
- viability, T/C [10]: 63.5%
- viability, T/C [11]: 41.5%
- viability, T/C [12]: 38.5%
- viability, T/C [13]: 90.6%
- viability, T/C [14]: 91.2%
- viability, T/C [15]: 75%
- viability, T/C [16]: 67.1%
- viability, T/C [17]: 43.4%
- viability, T/C [18]: 31.8%
- viability, T/C [19]: 80.2%
- viability, T/C [20]: 67.3%
- viability, T/C [21]: 76%
- viability, T/C [22]: 57.2%
- viability, T/C [23]: 45.2%
- viability, T/C [24]: 34.8%
- viability, T/C [25]: 69.7%
- viability, T/C [26]: 81.6%
- viability, T/C [27]: 65.5%
- viability, T/C [28]: 57.9%
- viability, T/C [29]: 43.1%
- viability, T/C [30]: 29.9%
- viability, T/C [31]: 92.2%
- viability, T/C [32]: 81.3%
- viability, T/C [33]: 67.2%
- viability, T/C [34]: 44.6%
- viability, T/C [35]: 44%
- viability, T/C [36]: 34.9%
